Laboratory results published in ChEMBL document CHEMBL1201862, “PubChem BioAssay data set” (2004).
Active and inactive are the calls of the source. Cut-off read from the data, not from the text of the source, for most assays here: actives have a measured EC50 and inactives only a lower limit.

Key:
[1] = Luminescence Cell-Based Dose Response HTS to Identify Activators of Luciferase Translation or Activity in H4 […] Cells. [Related pubchem assays: 1829 (Project Summary), 1814 (Primary HTS)]; type: functional
[2] = test system: H4; assay: Luminescence Cell-Based Dose Response HTS to Identify Activators of 5'UTR Stem-Loop Driven Prion Protein mRNA Translation in H4 Neuroglioblastoma Cells. [Related pubchem assays: 1829 (Project Summary), 1814 (Primary HTS)]; type: functional; conditions: Homo sapiens
[3] = target: T1, RNA-binding protein pos-1 (Caenorhabditis elegans, UniProt G5EF15); assay: inhibitors of POS-1/mex-3 RNA binding, dose response, biochemical, fluorescence polarization (AID 1964);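 note: purified POS-1 fused to maltose binding protein made in E. coli; potency of compounds blocking POS-1 binding to fluorescent RNA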
T1 sequence (G5EF15 whole entry): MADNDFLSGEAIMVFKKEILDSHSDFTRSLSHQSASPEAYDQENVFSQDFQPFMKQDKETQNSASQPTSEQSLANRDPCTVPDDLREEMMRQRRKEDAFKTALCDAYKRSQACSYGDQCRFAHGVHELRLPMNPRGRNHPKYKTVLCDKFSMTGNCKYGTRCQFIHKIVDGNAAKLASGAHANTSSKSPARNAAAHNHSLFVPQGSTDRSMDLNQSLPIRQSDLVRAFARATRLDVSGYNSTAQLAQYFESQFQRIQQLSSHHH

[4] = target: T2, Zinc finger protein mex-5 (Caenorhabditis elegans, UniProt Q9XUB2); assay: MEX-5/TCR-2 RNA interaction inhibitors, dose response, biochemical, C. elegans, fluorescence polarization (AID 1960)
T2 sequence (Q9XUB2 whole entry): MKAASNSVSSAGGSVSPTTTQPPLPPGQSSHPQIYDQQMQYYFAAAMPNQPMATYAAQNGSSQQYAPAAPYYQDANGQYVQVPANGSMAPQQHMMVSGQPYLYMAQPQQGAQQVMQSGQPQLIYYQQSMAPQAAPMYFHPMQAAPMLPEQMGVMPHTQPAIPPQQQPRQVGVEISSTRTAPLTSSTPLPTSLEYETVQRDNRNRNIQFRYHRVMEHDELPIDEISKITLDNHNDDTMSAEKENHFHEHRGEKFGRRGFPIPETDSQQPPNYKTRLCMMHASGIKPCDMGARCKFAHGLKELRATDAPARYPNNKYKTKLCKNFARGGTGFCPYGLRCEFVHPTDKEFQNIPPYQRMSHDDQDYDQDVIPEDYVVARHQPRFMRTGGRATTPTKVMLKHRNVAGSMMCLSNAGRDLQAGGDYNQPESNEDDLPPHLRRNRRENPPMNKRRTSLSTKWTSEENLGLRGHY

[5] = target: T3, Replicative DNA helicase DnaB (Mycobacterium tuberculosis, UniProt P9WMR3); assay: DnaB intein splicing inhibitors, dose response, biochemical, cell-free fluorescence (AID 449749); type: functional
T3 sequence (P9WMR3 whole entry): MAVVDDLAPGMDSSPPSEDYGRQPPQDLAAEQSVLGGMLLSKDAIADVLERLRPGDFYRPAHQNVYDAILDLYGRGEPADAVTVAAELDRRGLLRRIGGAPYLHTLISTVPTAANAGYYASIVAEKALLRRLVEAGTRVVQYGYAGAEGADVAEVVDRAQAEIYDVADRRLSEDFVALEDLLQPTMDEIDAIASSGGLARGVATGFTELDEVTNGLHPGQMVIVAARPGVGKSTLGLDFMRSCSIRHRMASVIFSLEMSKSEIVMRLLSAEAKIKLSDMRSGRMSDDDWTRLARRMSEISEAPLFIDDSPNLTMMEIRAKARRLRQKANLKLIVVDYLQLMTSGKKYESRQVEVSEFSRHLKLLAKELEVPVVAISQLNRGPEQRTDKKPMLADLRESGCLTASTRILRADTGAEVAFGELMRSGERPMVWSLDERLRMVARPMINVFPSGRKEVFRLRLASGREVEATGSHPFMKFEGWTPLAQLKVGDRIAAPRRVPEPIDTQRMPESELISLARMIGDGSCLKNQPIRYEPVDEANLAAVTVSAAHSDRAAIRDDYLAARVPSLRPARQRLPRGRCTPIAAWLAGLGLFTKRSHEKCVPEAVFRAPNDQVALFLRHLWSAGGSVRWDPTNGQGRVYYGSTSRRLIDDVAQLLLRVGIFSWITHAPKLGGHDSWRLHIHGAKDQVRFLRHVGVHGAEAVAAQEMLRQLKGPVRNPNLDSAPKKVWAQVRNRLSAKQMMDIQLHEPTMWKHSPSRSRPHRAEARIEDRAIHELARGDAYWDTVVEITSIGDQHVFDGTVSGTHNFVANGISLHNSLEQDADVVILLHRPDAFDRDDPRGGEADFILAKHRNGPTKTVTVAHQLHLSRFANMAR

[6] = target: T4, Protein RecA (Mycobacterium tuberculosis, UniProt P9WHJ3); assay: Fluorescence Cell-Free Homogeneous Dose Retest to Identify Inhibitors of RecA-Intein Splicing Activity. [Related pubchem assays (depositor defined):AID2097, AID2223, AID489010, AID492950]; type: functional
T4 sequence (P9WHJ3 whole entry): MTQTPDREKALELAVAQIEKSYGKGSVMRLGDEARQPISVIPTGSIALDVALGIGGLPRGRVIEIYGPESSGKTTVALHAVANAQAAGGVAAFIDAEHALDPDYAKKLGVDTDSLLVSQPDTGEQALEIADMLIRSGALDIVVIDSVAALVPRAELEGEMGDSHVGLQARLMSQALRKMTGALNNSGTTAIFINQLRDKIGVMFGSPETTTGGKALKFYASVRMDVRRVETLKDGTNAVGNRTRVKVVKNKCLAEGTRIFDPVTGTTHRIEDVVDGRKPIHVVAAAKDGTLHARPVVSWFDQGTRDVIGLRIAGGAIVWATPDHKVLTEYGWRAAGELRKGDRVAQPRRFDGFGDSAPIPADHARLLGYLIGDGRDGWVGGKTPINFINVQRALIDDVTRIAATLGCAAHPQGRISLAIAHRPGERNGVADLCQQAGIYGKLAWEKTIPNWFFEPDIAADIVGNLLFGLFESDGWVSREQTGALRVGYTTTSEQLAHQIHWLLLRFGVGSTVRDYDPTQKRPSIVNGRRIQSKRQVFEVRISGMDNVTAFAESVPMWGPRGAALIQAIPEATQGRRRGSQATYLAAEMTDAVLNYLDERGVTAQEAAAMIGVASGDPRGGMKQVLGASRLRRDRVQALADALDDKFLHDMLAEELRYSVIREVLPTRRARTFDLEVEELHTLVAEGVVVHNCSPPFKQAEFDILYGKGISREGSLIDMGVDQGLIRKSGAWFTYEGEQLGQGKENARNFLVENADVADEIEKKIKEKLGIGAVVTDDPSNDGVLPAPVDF

[7] = target: T5, Carboxy-terminal domain RNA polymerase II polypeptide A small phosphatase 1 (Homo sapiens, UniProt Q9GZU7); assay: inhibitors of CTDSP1, concentration-response testing, biochemical assay, absorbance-based, actives from ultra-high-throughput screening (AID 540297); type: functional
T5 sequence (Q9GZU7 whole entry): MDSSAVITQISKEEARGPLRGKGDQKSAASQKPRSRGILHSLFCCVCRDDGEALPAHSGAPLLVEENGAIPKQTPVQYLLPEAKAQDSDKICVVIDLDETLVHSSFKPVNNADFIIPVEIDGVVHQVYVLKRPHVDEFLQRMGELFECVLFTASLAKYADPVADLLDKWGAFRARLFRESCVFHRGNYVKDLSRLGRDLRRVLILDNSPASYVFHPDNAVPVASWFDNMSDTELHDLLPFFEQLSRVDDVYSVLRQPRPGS

c1ccc(-c2noc(CC3CCCCC3)n2)cc1
EC50 [1]: > 120 µM (not active)
EC50 [2]: > 120 µM (not active)

O=C1NC(=O)N(CCc2ccc(F)cc2)C(=O)/C1=C/NNC(=O)c1ccccc1
EC50 [3]: > 300 µM (not active)
EC50 [4]: > 300 µM (not active)

O=C(NCCC1=CCCCC1)c1cnc2n(c1=O)CCS2
EC50 [1]: 39.9 µM (active)
EC50 [2]: 56.6 µM (active)

COc1ccc(OC)c(C2C(C(=O)c3ccco3)=C(O)C(=O)N2CCN2CCOCC2)c1 (stereo not drawn)
EC50 [3]: > 300 µM (not active)
EC50 [4]: > 300 µM (not active)

CC(C)Cn1c(C(C)C)nc([N+](=O)[O-])c1S(=O)(=O)c1ccc(F)cc1
AC50 [5]: 13.9 µM (active)
EC50 [6]: 9.69 µM (active)

O=C(Nc1ccc2c(c1)oc1ccccc12)N1CCOCC1
EC50 [1]: 1.32 µM (active)
EC50 [2]: > 120 µM (not active)

Fc1ccc(CSc2nc3cc(Br)c[nH]c-3n2)cc1
IC50 [7]: 9.63 µM (active)

CC(C)c1ccc2oc(-c3ccc(NC(=O)c4nnc[nH]4)cc3)nc2c1
IC50 [7]: 6.65 µM (active)

O=C(CN1C(=O)N/C(=C\c2ccccc2OCc2ccc(C(=O)O)cc2)C1=O)Nc1ccccc1F
IC50 [7]: 7.13 µM (active)

O=C(/C=C/c1ccccc1)c1ccc2c3c(cccc13)CC2
AC50 [5]: > 380 µM (inactive)
EC50 [6]: 11.4 µM (active)

O=C(Nc1cccc(-c2nc3ccccc3s2)c1)c1cc(=O)c2ccccc2o1
IC50 [7]: 5.07 µM (active)

Cc1nnc(SCC2=C(C(=O)O)N3C(=O)C(NC(=O)COc4ccccc4)C3SC2)s1 (stereo not drawn)
IC50 [7]: 8.97 µM (active)

N#Cc1c(SCC(=O)Nc2cccc(C(F)(F)F)c2)sc2c(O)cc(O)nc12
IC50 [7]: 10.4 µM (active)

COC(=O)[C@H](CCSC)NC(=O)NC1CCN(Cc2ccccc2)CC1
EC50 [3]: > 300 µM (not active)
EC50 [4]: > 300 µM (not active)

CC1=NN(c2ccccc2)C(=O)/C1=C/c1cn(C)c2ccccc12
AC50 [5]: 57.1 µM (active)
EC50 [6]: 39 µM (active)

CCOC(=O)N1CC=C2C(C#N)=C(N)C(C#N)(C#N)[C@H](c3ccsc3)[C@H]2C1
EC50 [3]: 78.8 µM (active)
EC50 [4]: 58.7 µM (active)

CCOc1ccc(Cl)cc1C(c1c(C)n[nH]c1O)c1c(C)n[nH]c1O
AC50 [5]: 0.551 µM (active)
EC50 [6]: 0.221 µM (active)

CCCn1c(=O)[nH]c(=O)c2c1nc(-c1ccccc1)n2CCN1CCOCC1
IC50 [7]: 47.8 µM (active)

Cc1ccc(/N=C/c2sc(O)c3ccccc23)c(C)c1
EC50 [3]: > 300 µM (not active)
EC50 [4]: > 300 µM (inconclusive)

Cc1[nH]c2ccccc2c1/C=N/NC(=S)NC(C)C
EC50 [3]: > 300 µM (not active)
EC50 [4]: > 300 µM (not active)

CC(=O)Oc1oc(-c2ccccc2)nc1/C=N/c1ccc(N(C)C)cc1
EC50 [3]: > 300 µM (not active)
EC50 [4]: > 300 µM (not active)

O=C(O)COc1ccc(Br)cc1/C=N/O
IC50 [7]: 8.03 µM (active)

CC1=C(C)/C(=N\OC(=O)/C=C/c2ccccc2)C=CC1=O
AC50 [5]: > 380 µM (inactive)
EC50 [6]: 0.532 µM (active)
